Several values for one entry are separate records, joined by “and”; a condition that tells them apart may be missing. Identical values can stand only once. Blank lines part the entries; values can stand above or below the molecule they belong to. Activity calls are given as the source filed them.
What was measured:
[1] = OVCAR-3 cell viability loss – plate reader, dry powder samples, PAX8 inhibitor project, dose response (AID 743044); format: functional, cell-based
[2] = biological target: Paired box protein Pax-8 (Homo sapiens, UniProt Q06710); experiment: PAX8 transcriptional activity inhibition in RMG-I – RMG-I cells, luciferase, cherry-pick, dose response (AID 687027); format: functional, cell-based;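 further: luciferase reporter driven by Pax8 target thyroperoxidase promoter measured by SteadyGlo luminescence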
[3] = COV434 cell viability loss – plate reader, dry powder, SA7, cytotoxicity control for PAX8 inhibitor project, dose response (AID 743145); format: functional, cell-based
[4] = tested on: HEK293; experiment: cells; format: functional, cell-based; conditions: Homo sapiens
[5] = tested on: HEK293; experiment: cells; format: functional, cell-based; conditions: Homo sapiens; remark: listed apart in the source
[6] = Fluorescence-based cell-based high throughput dose response assay for inhibitors of the interaction of nucleotide-binding oligomerization domain containing 2 (NOD2) and the receptor-interacting serine-threonine kinase 2 (RIPK2).; format: functional; conditions: Homo sapiens
[7] = tested on: HEK293; experiment: cells; format: functional, cell-based; conditions: Homo sapiens; remark: listed apart in the source
[8] = PAX8-dependent cell viability loss – plate reader, dry powder, dose response (AID 743049); format: functional, cell-based
[9] = COV362 cell viability loss – plate reader, dry powder, SA12, cytotoxicity control for PAX8 inhibitor project, dose response (AID 743144); format: functional, cell-based
[10] = biological target: Beta Lactamase (Pseudomonas aeruginosa, UniProt Q932Y6); experiment: BLA reporter interference, concentration series – BLA reporter cells, FRET fluorescence, artefact control for NOD2-RIPK2 interaction inhibitor project, dose response (AID 651552); format: functional, cell-based
[11] = IGROV1 cell killing – plate reader, dry powder samples, PAX8 inhibitor project, dose response (AID 743043); format: functional, cell-based; conditions: IGROV-1
[12] = OV-90 cell viability loss – plate reader, dry powder, SA8, PAX8 inhibitor project, dose response (AID 743149); format: functional, cell-based
[13] = tested on: HEK293; experiment: NOD2 signaling inhibitors in MDP-stimulated cells, cell-based, uHTS, luminescence (AID 2001); format: functional; conditions: Homo sapiens
[14] = tested on: HEK293; experiment: inhibition of NOD1-driven NF-kB reporter – cell-based, luminescence, uHTS, primary screen (AID 1578); format: functional; conditions: Homo sapiens
[15] = biological target: Beta-galactosidase (Escherichia coli, UniProt Q8VNN2); experiment: detection-enzyme interference by beta-gal modulators – biochemical, E. coli enzyme, set 3, artefact control for CCR6 antagonist project, dose response (AID 504712); format: functional
[16] = biological target: Nucleotide-binding oligomerization domain-containing protein 2 (Homo sapiens, UniProt Q9HC29); experiment: inhibition of NOD2-driven NF-kB reporter – cell-based, luminescence, uHTS, HEK293 (AID 1566); format: functional
[17] = OVCAR4 cell viability loss – plate reader, dry powder, SA11, cytotoxicity control for PAX8 inhibitor project, dose response (AID 743150); format: functional, cell-based; conditions: OVCAR-4
[18] = biological target: ATP-dependent molecular chaperone HSP82 (Candida albicans (strain WO-1) (Yeast), UniProt C4YTQ8); experiment: steroid-induced GRE reporter decrease in yeast – S. cerevisiae, luminescence, Hsp90 inhibitor project, dose response (AID 2400); format: functional, cell-based;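 further: beta-galactosidase luminescence from glucocorticoid response element reporter as proxy for Hsp90 function; inhibitor potency where signal loss means Hsp90 inhibition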
[19] = biological target: Hepatocyte nuclear factor 4-alpha (Homo sapiens, UniProt P41235); format: functional, cell-based;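 further: biochemical luminescence-based dose-response counterscreen measuring inhibition of HNF4 dimerization, run alongside a screen for blockers of ABHD5–perilipin-5 interaction; split luciferase complementation of HNF4 fusion proteins in cell lysate measuring dimerization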
[20] = biological target: T1, CAAX prenyl protease 2 (Saccharomyces cerevisiae S288c, UniProt Q03530); format: biochemical
T1 sequence (Q03530 whole entry): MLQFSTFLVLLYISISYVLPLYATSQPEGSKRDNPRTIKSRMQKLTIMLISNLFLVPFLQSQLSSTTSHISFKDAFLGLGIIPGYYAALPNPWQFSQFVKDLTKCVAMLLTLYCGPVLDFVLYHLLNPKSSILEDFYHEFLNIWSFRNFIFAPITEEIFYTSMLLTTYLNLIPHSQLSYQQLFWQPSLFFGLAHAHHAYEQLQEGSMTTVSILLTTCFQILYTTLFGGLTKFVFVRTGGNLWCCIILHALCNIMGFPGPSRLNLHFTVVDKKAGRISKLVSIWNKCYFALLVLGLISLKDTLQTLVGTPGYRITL

[21] = biological target: T2, Rac GTPase-activating protein 1 (Homo sapiens, UniProt Q9H0H5); experiment: blockers of MgcRacGAP-driven Rac1 GTP hydrolysis – biochemical, ADP Hunter fluorescence, primary and confirmatory, confirmation (AID 624330); format: functional
T2 sequence (Q9H0H5 whole entry): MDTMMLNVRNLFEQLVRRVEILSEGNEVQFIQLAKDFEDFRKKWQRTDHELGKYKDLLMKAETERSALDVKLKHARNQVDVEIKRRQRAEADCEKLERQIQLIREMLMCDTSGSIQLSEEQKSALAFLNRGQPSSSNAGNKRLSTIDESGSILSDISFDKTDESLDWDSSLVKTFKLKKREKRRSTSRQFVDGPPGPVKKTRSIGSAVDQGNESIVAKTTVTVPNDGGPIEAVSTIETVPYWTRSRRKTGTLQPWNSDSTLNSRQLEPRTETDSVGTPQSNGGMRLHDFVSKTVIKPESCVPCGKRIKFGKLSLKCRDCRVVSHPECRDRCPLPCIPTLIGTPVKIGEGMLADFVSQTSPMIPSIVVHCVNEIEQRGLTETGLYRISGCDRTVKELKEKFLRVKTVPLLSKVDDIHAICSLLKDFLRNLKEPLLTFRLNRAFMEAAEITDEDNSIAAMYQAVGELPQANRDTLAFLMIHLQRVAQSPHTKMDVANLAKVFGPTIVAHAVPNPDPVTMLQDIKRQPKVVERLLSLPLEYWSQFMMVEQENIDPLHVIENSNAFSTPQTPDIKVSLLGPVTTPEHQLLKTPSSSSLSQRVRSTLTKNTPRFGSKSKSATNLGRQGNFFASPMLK

[22] = biological target: CAAX prenyl protease 2 (Homo sapiens, UniProt Q9Y256); experiment: inhibition of Ras-converting CAAX protease Rce1 – biochemical, yeast membranes, quenched-peptide fluorescence, cherry-pick, dose response (AID 588849)
[23] = biological target: T3, DNA repair protein RAD52 homolog (Homo sapiens, UniProt P43351); format: functional, biochemical
T3 sequence (P43351 whole entry): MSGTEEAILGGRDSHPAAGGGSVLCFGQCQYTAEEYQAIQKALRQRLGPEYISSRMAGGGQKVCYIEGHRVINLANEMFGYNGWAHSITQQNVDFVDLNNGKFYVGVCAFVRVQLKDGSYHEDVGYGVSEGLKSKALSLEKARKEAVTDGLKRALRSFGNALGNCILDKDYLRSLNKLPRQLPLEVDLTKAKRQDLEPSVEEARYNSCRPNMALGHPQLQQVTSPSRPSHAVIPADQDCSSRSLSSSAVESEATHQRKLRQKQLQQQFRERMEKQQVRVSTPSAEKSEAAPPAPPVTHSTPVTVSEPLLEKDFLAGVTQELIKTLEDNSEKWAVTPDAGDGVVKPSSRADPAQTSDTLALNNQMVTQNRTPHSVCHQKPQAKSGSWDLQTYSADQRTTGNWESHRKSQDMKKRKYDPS

[24] = biological target: Melanocortin receptor 4 (Homo sapiens, UniProt P32245); experiment: inhibitors of MC4R cAMP signaling – cell-based, TR-FRET, biased antagonists, dose response (AID 602298); format: functional;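 further: antagonist potency against agonist-stimulated cAMP production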
[25] = inhibition of ARNT PAS-B/TACC3 complex formation – biochemical, AlphaScreen, cherry-picked samples, confirmation (AID 651703); format: functional, Homo sapiens;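 further: His-tagged ARNT PAS-B domain paired with GST-TACC3 E629A dimer coactivator fragment; potency of inhibitors that break up the complex and lower AlphaScreen signal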
[26] = biological target: T4, Sentrin-specific protease 8 (Homo sapiens, UniProt Q96LD8); format: functional
T4 sequence (Q96LD8 whole entry): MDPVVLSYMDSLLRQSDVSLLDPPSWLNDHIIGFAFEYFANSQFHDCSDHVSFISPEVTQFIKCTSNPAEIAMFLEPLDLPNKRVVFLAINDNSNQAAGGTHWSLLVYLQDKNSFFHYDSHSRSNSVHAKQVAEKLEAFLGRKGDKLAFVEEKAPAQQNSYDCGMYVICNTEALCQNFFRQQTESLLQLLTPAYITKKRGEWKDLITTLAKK

[27] = biological target: T4, Sentrin-specific protease 8; format: functional; remark: listed apart in the source
[28] = biological target: ADP-ribosylation factor GTPase-activating protein 1 (Rattus norvegicus, UniProt Q62848); experiment: Fluorescence polarization-based biochemical high throughput dose response screening assay to identify inhibitors of ADP-ribosylation factor GTPase activating protein 1 (ARFGAP1).; format: functional
[29] = biological target: T5, Short transient receptor potential channel 4 (Mus musculus, UniProt Q9QUQ5); experiment: block of DAMGO-driven TRPC4 calcium entry – cell-based, HEK293 TRPC4/mu-opioid, Fluo-4 calcium, dose response (AID 434942); format: functional;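 further: potency of inhibitors blocking the TRPC4 calcium response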
T5 sequence (Q9QUQ5 whole entry): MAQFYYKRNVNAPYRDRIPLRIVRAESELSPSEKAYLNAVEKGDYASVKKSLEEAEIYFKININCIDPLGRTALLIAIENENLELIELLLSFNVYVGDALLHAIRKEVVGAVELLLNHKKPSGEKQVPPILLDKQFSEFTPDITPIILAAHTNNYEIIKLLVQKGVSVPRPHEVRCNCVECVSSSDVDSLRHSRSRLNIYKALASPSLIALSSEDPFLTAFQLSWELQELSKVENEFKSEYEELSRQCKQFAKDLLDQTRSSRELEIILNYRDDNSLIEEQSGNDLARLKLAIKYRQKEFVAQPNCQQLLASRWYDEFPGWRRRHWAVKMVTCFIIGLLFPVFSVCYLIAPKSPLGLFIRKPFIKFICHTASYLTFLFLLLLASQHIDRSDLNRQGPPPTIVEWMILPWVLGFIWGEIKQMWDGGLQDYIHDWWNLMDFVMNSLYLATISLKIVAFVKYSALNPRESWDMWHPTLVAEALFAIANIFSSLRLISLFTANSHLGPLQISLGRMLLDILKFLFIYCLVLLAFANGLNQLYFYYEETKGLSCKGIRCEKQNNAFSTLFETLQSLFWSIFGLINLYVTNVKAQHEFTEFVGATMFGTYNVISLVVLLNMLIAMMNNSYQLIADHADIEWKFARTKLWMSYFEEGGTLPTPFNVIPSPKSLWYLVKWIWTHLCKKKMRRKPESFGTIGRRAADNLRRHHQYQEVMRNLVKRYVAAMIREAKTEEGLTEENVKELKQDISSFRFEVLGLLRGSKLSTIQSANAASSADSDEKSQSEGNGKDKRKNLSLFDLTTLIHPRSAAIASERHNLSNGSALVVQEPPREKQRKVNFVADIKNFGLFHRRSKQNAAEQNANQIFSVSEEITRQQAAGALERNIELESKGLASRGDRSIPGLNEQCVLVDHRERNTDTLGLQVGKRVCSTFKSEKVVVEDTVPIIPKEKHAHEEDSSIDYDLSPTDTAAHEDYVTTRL

[30] = biological target: Arf-GAP with SH3 domain, ANK repeat and PH domain-containing protein 1 (Homo sapiens, UniProt Q9ULH1); format: functional;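 further: biochemical fluorescence polarization dose–response screen measuring inhibition of ASAP1; ASAP1 GAP domain stimulating GTP hydrolysis by truncated human ARF1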
[31] = biological target: Aryl hydrocarbon receptor (Homo sapiens, UniProt P35869); conditions: Potency;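 further: confirmatory quantitative high-throughput screen measuring activation of the AhR signaling pathway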
Chain of Aryl hydrocarbon receptor (P35869 whole entry): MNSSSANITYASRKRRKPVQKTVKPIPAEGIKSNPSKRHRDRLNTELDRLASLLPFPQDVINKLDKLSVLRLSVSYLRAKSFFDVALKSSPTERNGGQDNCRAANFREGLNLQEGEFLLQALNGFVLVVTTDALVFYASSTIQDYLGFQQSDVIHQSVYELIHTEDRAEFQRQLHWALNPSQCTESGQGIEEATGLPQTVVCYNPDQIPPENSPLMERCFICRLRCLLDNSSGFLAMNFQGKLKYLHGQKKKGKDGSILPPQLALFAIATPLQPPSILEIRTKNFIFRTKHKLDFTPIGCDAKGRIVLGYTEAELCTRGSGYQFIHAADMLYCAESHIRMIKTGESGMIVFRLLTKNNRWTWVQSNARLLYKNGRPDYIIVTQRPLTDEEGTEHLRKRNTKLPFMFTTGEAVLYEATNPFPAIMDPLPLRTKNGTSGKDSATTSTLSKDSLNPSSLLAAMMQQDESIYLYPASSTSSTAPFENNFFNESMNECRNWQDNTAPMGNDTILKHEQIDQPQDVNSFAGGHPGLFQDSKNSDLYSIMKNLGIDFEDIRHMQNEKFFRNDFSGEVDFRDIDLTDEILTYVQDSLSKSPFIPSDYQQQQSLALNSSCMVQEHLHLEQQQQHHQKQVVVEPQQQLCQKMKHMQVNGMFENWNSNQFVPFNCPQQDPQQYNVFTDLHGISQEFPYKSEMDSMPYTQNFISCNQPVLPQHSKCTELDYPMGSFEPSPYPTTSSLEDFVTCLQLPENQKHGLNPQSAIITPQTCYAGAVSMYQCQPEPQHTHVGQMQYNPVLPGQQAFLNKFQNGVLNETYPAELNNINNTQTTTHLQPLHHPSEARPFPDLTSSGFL

Chain of ATP-dependent molecular chaperone HSP82 (C4YTQ8 whole entry, the tested form may be a part): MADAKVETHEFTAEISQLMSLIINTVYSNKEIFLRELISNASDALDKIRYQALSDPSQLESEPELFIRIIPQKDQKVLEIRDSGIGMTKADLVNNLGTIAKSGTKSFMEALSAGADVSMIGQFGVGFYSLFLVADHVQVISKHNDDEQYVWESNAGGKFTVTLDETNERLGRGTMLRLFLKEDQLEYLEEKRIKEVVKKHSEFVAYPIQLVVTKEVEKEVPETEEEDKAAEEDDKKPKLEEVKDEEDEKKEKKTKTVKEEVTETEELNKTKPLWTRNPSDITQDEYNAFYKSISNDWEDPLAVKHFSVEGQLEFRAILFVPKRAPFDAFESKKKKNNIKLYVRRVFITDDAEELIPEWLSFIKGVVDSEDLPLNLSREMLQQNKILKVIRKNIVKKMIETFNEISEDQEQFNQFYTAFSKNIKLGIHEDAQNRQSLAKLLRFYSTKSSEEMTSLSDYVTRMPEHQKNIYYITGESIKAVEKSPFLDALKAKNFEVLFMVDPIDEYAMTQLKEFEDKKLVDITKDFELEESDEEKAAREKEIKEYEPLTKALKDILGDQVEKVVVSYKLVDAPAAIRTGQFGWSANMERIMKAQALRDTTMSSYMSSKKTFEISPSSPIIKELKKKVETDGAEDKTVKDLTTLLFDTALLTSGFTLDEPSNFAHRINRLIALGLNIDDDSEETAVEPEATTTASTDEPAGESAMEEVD
Chain of Melanocortin receptor 4 (P32245 whole entry, the tested form may be a part): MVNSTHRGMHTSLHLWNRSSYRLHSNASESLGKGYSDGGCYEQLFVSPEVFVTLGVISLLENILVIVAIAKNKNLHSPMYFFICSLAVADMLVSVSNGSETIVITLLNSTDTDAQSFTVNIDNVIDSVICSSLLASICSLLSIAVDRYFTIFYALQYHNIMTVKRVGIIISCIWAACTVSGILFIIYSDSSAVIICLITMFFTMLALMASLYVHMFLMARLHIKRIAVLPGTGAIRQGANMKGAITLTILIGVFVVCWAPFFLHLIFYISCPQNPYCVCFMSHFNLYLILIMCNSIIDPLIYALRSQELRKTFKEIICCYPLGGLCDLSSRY
Chain of Paired box protein Pax-8 (Q06710 whole entry): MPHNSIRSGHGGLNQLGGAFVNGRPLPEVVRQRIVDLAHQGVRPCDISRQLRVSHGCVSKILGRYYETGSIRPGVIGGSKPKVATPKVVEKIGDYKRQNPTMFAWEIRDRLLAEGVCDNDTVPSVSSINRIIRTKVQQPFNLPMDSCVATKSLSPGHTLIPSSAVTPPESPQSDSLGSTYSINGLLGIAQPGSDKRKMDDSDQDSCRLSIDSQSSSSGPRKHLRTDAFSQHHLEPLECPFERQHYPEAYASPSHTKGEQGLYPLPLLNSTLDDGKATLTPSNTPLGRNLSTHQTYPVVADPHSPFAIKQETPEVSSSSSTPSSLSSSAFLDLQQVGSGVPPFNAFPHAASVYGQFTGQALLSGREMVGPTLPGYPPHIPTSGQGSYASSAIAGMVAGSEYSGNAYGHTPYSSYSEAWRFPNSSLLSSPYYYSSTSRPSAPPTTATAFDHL
Chain of CAAX prenyl protease 2 (Homo sapiens, UniProt Q9Y256) (Q9Y256 whole entry): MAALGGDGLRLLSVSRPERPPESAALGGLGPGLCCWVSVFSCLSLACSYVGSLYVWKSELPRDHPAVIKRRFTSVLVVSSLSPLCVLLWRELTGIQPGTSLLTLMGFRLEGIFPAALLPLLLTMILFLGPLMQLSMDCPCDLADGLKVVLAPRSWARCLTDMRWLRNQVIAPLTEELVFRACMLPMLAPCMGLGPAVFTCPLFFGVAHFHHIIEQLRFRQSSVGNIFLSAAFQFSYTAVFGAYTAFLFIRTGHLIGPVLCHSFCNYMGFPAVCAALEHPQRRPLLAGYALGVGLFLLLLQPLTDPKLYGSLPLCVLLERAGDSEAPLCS
Chain of Beta-galactosidase (Q8VNN2 whole entry, the tested form may be a part): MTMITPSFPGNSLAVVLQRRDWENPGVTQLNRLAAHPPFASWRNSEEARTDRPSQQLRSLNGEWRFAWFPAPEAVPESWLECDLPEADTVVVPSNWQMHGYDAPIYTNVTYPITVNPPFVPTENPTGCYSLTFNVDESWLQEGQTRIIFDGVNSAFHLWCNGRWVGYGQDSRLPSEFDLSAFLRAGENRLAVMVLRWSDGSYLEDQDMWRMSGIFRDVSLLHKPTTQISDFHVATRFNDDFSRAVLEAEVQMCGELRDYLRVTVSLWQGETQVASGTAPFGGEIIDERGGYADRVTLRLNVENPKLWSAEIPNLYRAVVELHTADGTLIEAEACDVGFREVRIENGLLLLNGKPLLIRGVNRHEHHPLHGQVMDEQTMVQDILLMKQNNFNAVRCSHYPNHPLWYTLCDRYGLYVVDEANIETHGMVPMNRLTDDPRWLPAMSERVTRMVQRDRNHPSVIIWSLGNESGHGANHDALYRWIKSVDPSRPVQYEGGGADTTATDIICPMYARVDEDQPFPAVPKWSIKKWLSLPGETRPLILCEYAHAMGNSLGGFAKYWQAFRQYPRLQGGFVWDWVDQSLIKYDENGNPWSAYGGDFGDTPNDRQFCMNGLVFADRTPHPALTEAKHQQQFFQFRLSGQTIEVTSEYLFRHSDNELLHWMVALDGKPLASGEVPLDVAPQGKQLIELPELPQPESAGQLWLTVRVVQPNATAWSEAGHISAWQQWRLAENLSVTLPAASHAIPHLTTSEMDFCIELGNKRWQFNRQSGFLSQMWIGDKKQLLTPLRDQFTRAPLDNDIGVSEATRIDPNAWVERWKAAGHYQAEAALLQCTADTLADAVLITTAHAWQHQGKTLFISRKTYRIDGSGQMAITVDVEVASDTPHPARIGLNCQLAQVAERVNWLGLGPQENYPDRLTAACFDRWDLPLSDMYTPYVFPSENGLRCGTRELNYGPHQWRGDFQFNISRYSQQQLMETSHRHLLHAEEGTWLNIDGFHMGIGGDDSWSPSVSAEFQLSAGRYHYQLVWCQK
Chain of Nucleotide-binding oligomerization domain-containing protein 2 (Q9HC29 whole entry, the tested form may be a part): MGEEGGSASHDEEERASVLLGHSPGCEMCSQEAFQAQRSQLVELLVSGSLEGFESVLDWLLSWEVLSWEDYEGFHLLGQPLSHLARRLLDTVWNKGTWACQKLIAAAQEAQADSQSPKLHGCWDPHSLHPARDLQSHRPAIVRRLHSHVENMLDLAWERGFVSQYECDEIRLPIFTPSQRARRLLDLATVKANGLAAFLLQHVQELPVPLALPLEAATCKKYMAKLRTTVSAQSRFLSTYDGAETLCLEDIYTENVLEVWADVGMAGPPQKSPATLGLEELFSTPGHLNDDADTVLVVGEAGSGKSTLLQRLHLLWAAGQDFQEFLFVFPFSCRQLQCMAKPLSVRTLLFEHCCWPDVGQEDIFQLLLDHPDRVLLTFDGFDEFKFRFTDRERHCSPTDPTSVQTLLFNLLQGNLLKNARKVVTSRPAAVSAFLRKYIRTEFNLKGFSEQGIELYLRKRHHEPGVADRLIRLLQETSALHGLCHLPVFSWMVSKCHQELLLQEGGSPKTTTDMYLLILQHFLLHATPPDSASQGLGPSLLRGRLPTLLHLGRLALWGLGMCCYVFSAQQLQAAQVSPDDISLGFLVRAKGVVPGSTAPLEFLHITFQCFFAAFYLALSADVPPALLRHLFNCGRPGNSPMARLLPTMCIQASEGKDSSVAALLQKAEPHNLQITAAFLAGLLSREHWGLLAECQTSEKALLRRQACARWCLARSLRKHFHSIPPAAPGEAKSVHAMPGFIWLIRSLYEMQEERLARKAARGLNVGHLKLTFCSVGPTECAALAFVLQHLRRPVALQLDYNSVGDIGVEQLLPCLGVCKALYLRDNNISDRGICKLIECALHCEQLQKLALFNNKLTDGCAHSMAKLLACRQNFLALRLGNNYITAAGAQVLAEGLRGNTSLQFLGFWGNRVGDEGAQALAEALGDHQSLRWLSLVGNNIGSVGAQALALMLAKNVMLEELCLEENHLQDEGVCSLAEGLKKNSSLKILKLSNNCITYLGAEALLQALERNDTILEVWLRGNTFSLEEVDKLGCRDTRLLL
Chain of Beta Lactamase (Q932Y6 whole entry): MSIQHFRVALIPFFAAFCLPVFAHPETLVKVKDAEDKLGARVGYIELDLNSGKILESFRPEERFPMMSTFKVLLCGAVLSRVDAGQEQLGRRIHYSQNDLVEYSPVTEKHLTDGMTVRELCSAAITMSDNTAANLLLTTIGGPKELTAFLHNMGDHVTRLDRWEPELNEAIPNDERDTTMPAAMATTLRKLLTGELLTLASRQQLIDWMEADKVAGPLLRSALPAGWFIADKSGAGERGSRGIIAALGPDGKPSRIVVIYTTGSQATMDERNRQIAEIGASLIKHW

EC50 [18]: 19.8 µM (active) and > 160 µM (inactive)
IC50 [19]: 21.4 µM (inactive)
AC50 [20]: 23.1 µM (active)
IC50 [21]: 42.3 µM (active)
AC50 [22]: 12.9 µM (active)
AC50 [23]: 17.4 µM (active)
IC50 [24]: 1.55 µM (active)
Structure (SMILES): [H]/N=C(\N/C(=N/[H])NCCCCCCNC(=N)NC(=N)Nc1ccc(Cl)cc1)Nc1ccc(Cl)cc1

AC50 [31]: 31.6 µM (inconclusive)
Structure (SMILES): Nc1ccc(N)c(Cl)c1

Further lines, the molecule ahead of its results:

Structure (SMILES): COc1cccc2sc(N(CCCN(C)C)C(=O)CCS(=O)(=O)c3ccccc3)nc12
AC50 [1]: 10 µM (active)
AC50 [2]: 7.04 µM (active)
AC50 [3]: 12.9 µM (active)
IC50 [4]: > 20 µM (inactive)
IC50 [5]: > 20 µM (inactive)
IC50 [6]: 4.68 µM (active)
IC50 [7]: 5.96 µM (active)
AC50 [8]: 8.54 µM (active)
AC50 [9]: 13.9 µM (active)
IC50 [10]: 17.2 µM (inactive)
AC50 [11]: 28.7 µM (active)
AC50 [12]: 43.1 µM (active)
IC50 [13]: 6.06 µM (active)
EC50 [14]: 8.24 µM (active)
IC50 [15]: > 66.6 µM (inactive)
EC50 [16]: > 20 µM (inactive)
AC50 [17]: 22.1 µM (active)

Structure (SMILES): Cc1ccoc1C(=O)NCCCNC(=O)c1occc1C
AC50 [25]: 84.7 µM (active)
IC50 [26]: 8.27 µM (active)
IC50 [27]: 12.7 µM (active)

Structure (SMILES): COC(=O)CSc1nnc2n(-c3ccc(OC)cc3)c(=O)c3c4c(sc3n12)CCCCC4
IC50 [28]: 38.1 µM (inactive)
EC50 [29]: 1.5 µM (active)
IC50 [30]: 28.2 µM (inactive)

Source: ChEMBL document CHEMBL1201862, “PubChem BioAssay data set” (2004)
